Measured values as given in patent publication US10316017B2, “COT modulators and methods of use thereof” (Gilead Sciences, Inc., priority 2015, dated 2019).
Read-outs that look alike come from different tables or passages of the source.

Legend:
[1] = test system: TNFα production in LPS-stimulated human monocytes; test: Cot Monocyte TNFα Cell Based Assay; settings: Homo sapiens, Monocyte, read-out: EC50 TNF
Method in brief: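 Percent-of-control values derive from TR-FRET ratios of TNFα in spun-down media, referenced to unstimulated and LPS-stimulated wells. Exposure: 1 h compound preincubation, then 50 pg/ml LPS for 4 h, both at 37 °C, with 0.5% final DMSO.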

[2] = biological target: T1, human Cot catalytic domain (30-397 amino acids) (Homo sapiens, UniProt P41279); test: High Throughput Cot Biochemical Assay (KinEASE TR-FRET); settings: read-out: IC50 HTRF
T1 construct: Purified recombinant human Cot catalytic domain (30-397 amino acids) was purchased from Cama Biosciences; purchased Cama Biosciences (so in the source)
Method in brief: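 Phosphorylation of 1 μM XL665-STK3 peptide by 5 nM Cot catalytic domain was measured by time-resolved FRET using a europium […] antibody. ATP was 400 μM; buffer was 10 mM MOPS pH 7.0 with Mg2+ and DTT.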

[3] = TNFα in LPS-stimulated human monocytes
[4] = Cot biochemical HTRF (KinEASE TR-FRET) assay
[5] = LPS-stimulated human monocytes, TNFα TR-FRET
[6] = Cot KinEASE TR-FRET, 400 μM ATP
[7] = Cot KinEASE TR-FRET (HTRF) biochemical assay, 400 μM ATP

T1 sequence (P41279 30-397): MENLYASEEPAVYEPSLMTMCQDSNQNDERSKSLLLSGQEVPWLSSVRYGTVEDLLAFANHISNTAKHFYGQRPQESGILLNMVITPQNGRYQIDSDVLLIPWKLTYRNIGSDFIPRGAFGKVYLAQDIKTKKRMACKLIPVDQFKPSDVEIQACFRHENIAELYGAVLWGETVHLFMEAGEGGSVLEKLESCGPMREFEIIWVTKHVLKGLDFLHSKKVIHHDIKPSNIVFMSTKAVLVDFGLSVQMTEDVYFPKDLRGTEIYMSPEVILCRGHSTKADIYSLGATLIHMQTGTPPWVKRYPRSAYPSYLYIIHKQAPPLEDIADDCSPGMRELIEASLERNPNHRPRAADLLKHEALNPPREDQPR

| EC50 [1, 3] [nM] | IC50 [2, 4] [nM] | EC50 [1, 5] [nM] | IC50 [2, 6] [nM] | IC50 [2, 7] [nM] | Structure (SMILES) |
| --- | --- | --- | --- | --- | --- |
| > 10000 | 459 | – | – | – | Cn1cc(CNc2c(C#N)cnc3c(Cl)cc(N[C@@H](c4ccccc4)c4cn(C5CCN(C(C)(C)C)CC5)nn4)cc23)cn1 [Example 475, (S)-6-(((1-(1-(tert-butyl)piperidin-4-yl)-1H-1,2,3-triazol-4-yl)(phenyl)methyl)amino)-8-chloro-4-(((1-methyl-1H-pyrazol-4-yl)methyl)amino)quinoline-3-carbonitrile] |
| 1260 | 17 | – | – | – | N#Cc1ccc([C@H](Nc2cc(Cl)c3ncc(C#N)c(Nc4cnc(F)c(F)c4)c3c2)c2c[nH]nn2)cc1 [Example 423, (S)-8-chloro-6-(((4-cyanophenyl)(1H-1,2,3-triazol-4-yl)methyl)amino)-4-((5,6-difluoropyridin-3-yl)amino)quinoline-3-carbonitrile] |
| – | – | 31 | 2 | – | Cc1c(-c2cnn(C)c2)cccc1[C@H](Nc1cc(C#N)c2ncc(C#N)c(NCC(C)(C)C)c2c1)c1cn(C2(C(F)F)CC2)nn1 [Example 1142, (S)-6-(((1-(1-(difluoromethyl)cyclopropyl)-1H-1,2,3-triazol-4-yl)(2-methyl-3-(1-methyl-1H-pyrazol-4-yl)phenyl)methyl)amino)-4-(neopentylamino)quinoline-3,8-dicarbonitrile] |
| 273 | – | – | – | 47 | CC(C)(C)CNc1c(C#N)cnc2c(Cl)cc(N[C@@H](c3ccc(F)cc3)c3cn(-c4ccccc4)nn3)cc12 [Example 395, (S)-8-chloro-6-(((4-fluorophenyl)(1-phenyl-1H-1,2,3-triazol-4-yl)methyl)amino)-4-(neopentylamino)quinoline-3-carbonitrile] |
| 450 | 58 | – | – | – | CN(C)C(=O)CN1CCC(n2cc([C@@H](Nc3cc(Cl)c4ncc(C#N)c(Nc5ccc(F)c(Cl)c5)c4c3)c3ccc(F)cc3)nn2)CC1 [Example 824, (S)-2-(4-(4-(((8-chloro-4-((3-chloro-4-fluorophenyl)amino)-3-cyanoquinolin-6-yl)amino)(4-fluorophenyl)methyl)-1H-1,2,3-triazol-1-yl)piperidin-1-yl)-N,N-dimethylacetamide] |
| 207 | 13 | – | – | – | CC(C)n1cc([C@@H](Nc2cc(Cl)c3ncc(C#N)c(Nc4ccc(F)c(Cl)c4)c3c2)c2cccc(CN3CCCC3)c2)nn1 [Example 570, (S)-8-chloro-4-((3-chloro-4-fluorophenyl)amino)-6-(((1-isopropyl-1H-1,2,3-triazol-4-yl) (3-(pyrrolidin-1-ylmethyl)phenyl)methyl)amino) quinoline-3-carbonitrile] |
| 1700 | 53 | – | – | – | CC(C)(C)N1CCC(n2cc([C@@H](Nc3cc(Cl)c4ncc(C#N)c(NCc5ccccc5F)c4c3)c3ccccc3)nn2)CC1 [Example 618, (S)-6-(((1-(1-(tert-butyl)piperidin-4-yl)-1H-1,2,3-triazol-4-yl)(phenyl)methyl)amino)-8-chloro-4-((2-fluorobenzyl)amino)quinoline-3-carbonitrile] |
| 1050 | – | – | – | 28 | CC1(CNc2c(C#N)cnc3c(Cl)cc(N[C@@H](c4ccc(F)cc4)c4c[nH]nn4)cc23)CCOCC1 [Example 398, (S)-8-chloro-6-(((4-fluorophenyl)(1H-1,2,3-triazol-4-yl)methyl)amino)-4-(((4-methyltetrahydro-2H-pyran-4-yl)methyl)amino)quinoline-3-carbonitrile] |
| – | – | 259 | 17 | – | [2H][C@](Nc1cc(Cl)c2ncc(C#N)c(N[C@H](CC)c3ccccc3)c2c1)(c1ccc(F)cc1)c1cn(C2(C(F)F)CC2)nn1 [Example 1028, 8-chloro-6-(((S)-(1-(1-(difluoromethyl)cyclopropyl)-1H-1,2,3-triazol-4-yl)(4-fluorophenyl)methyl-d)amino)-4-(((R)-1-phenylpropyl)amino)quinoline-3-carbonitrile] |
| 597 | 11 | – | – | – | CC(C)(C)N1CCC(n2cc([C@@H](Nc3cc(Cl)c4ncc(C#N)c(Nc5ccc(Cl)c(Cl)c5F)c4c3)c3ccccc3)nn2)CC1 [Example 781, (S)-6-(((1-(1-(tert-butyl)piperidin-4-yl)-1H-1,2,3-triazol-4-yl)(phenyl)methyl)amino)-8-chloro-4-((3,4-dichloro-2-fluorophenyl)amino)quinoline-3-carbonitrile] |
| – | – | 138 | 4 | – | CC(C)(C)CNc1c(C#N)cnc2c(C#N)cc(N[C@@H](c3ccccc3)c3cn(C45CC(C4)C5)nn3)cc12 [Example 1124, (S)-6-(((1-(bicyclo[1.1.1]pentan-1-yl)-1H-1,2,3-triazol-4-yl)(phenyl)methyl)amino)-4-(neopentylamino)quinoline-3,8-dicarbonitrile] |
| – | – | 187 | 10 | – | [2H][C@](Nc1cc(Cl)c2ncc(C#N)c(N[C@H](CCOC)c3ccccc3)c2c1)(c1ccc(F)cc1)c1cn(C2CC2)nn1 [Example 925, 8-chloro-6-(((1-cyclopropyl-1H-1,2,3-triazol-4-yl)(4-fluorophenyl)methyl-d)amino)-4-(((R)-3-methoxy-1-phenylpropyl)amino)quinoline-3-carbonitrile] |

Further lines, the compound ahead of its results:

| Structure (SMILES) | EC50 [1, 3] [nM] | IC50 [2, 4] [nM] | EC50 [1, 5] [nM] | IC50 [2, 6] [nM] | IC50 [2, 7] [nM] |
| --- | --- | --- | --- | --- | --- |
| CC[C@@H](Nc1c(C#N)cnc2c(C#N)cc(N[C@H](c3cn(C4CC4)nn3)c3ccccc3Cl)cc12)c1ccccc1 [Example 210, 6-(((S)-(2-chlorophenyl)(1-cyclopropyl-1H-1,2,3-triazol-4-yl)methyl)amino)-4-(((R)-1-phenylpropyl)amino) quinoline-3,8-dicarbonitrile] | 243 | – | – | – | 6 |
| [2H][C@](Nc1cc(Cl)c2ncc(C#N)c(N[C@@H](CC#N)c3ccccc3)c2c1)(c1cccc(C#N)c1)c1cn(C2CC2)nn1 [Example 295, 8-chloro-4-(((S)-2-cyano-1-phenylethyl)amino)-6-(((S)-(3-cyanophenyl)(1-cyclopropyl-1H-1,2,3-triazol-4-yl)methyl-d)amino)quinoline-3-carbonitrile] | > 10000 | – | – | – | 389 |
| N#Cc1cnc2c(Cl)cc(N[C@@H](c3cccc(F)c3)c3cn(C4CC4)nn3)cc2c1Nc1cnc(F)c(F)c1 [Example 265, (S)-8-chloro-6-(((1-cyclopropyl-1H-1,2,3-triazol-4-yl)(3-fluorophenyl)methyl)amino)-4-((5,6-difluoropyridin-3-yl)amino)quinoline-3-carbonitrile] | 471 | – | – | – | 12 |
| [2H][C@](Nc1cc(Cl)c2ncc(C#N)c(NCC3(C)CCC3)c2c1)(c1cccc(C#N)c1)c1cn(C2CC2)nn1 [Example 276, (S)-8-chloro-6-(((3-cyanophenyl)(1-cyclopropyl-1H-1,2,3-triazol-4-yl)methyl-d)amino)-4-(((1-methylcyclobutyl)methyl)amino) quinoline-3-carbonitrile] | 166 | – | – | – | 3 |
| [2H][C@](Nc1cc(Cl)c2ncc(C#N)c(NN3CCCC3)c2c1)(c1ccc(F)cc1)c1cn(C2CC2)nn1 [Example 179, (S)-8-chloro-6-(((1-cyclopropyl-1H-1,2,3-triazol-4-yl)(4-fluorophenyl)methyl-d)amino)-4-(pyrrolidin-1-ylamino)quinoline-3-carbonitrile] | 2310 | – | – | – | 193 |
| [2H][C@@](Nc1cc(Cl)c2ncc(C#N)c(N[C@H](CC)c3ccccc3)c2c1)(c1cn(C2CC2)nn1)c1ccccc1Cl [Example 357, 8-chloro-6-(((S)-(2-chlorophenyl)(1-cyclopropyl-1H-1,2,3-triazol-4-yl)methyl-d)amino)-4-(((R)-1-phenylpropyl)amino) quinoline-3-carbonitrile] | 522 | – | – | – | 20 |
| N#Cc1cnc2c(Cl)cc(N[C@@H](c3ccc(F)cc3)c3cn(C4CC4)nn3)cc2c1NCc1cncs1 [Example 346, (S)-8-chloro-6-(((1-cyclopropyl-1H-1,2,3-triazol-4-yl)(4-fluorophenyl)methyl)amino)-4-((thiazol-5-ylmethyl)amino)quinoline-3-carbonitrile] | 6100 | – | – | – | 338 |
| [2H][C@](Nc1ccc2ncc(C#N)c(NCC(C)(C)C)c2c1)(c1ccc(F)cc1)c1cn(C2CC2)nn1 [Example 133, 6-(((1-cyclopropyl-1H-1,2,3-triazol-4-yl)(4-fluorophenyl)methyl-d)amino)-4-(neopentylamino) quinoline-3-carbonitrile] | 313 | – | – | – | 21 |
| CC(C)n1cc([C@@H](Nc2cc(Cl)c3ncc(C#N)c(N[C@@H](c4ccccc4)C(F)(F)F)c3c2)c2ccc(F)cc2)nn1 [Example 364, 8-chloro-6-(((S)-(4-fluorophenyl)(1-isopropyl-1H-1,2,3-triazol-4-yl)methyl)amino)-4-(((S)-2,2,2-trifluoro-1-phenylethyl)amino)quinoline-3-carbonitrile] | 631 | – | – | – | 48 |
| CC[C@@H](Nc1c(C#N)cnc2c(Cl)cc(N[C@@H](c3ccc(F)cc3)c3cn(CC(=O)O)nn3)cc12)c1ccccc1 [Example 115, 2-(4-((S)-((8-chloro-3-cyano-4-(((R)-1-phenylpropyl)amino)quinolin-6-yl)amino)(4-fluorophenyl)methyl)-1H-1,2,3-triazol-1-yl) acetic acid] | > 10000 | – | – | – | 3 |
